The values below come from ChEMBL document CHEMBL5365498, “Regulation of Eukaryotic Translation Initiation Factor 4E as a Potential Anticancer Strategy” (J Med Chem, 2023).

Experiment [1] relates to A549. Kind of experiment: Anticancer activity against human A549 cells assessed as cell growth inhibition measured after 72 hrs by CCK-8 assay. Format: functional, cell-based. To be noted: A549, 72 h. For orientation: Formazan colour is commonly taken as a measure of viable cells.
Experiment [2] relates to MCF7. The experiment is described as follows: Anticancer activity against human MCF7 cells assessed as cell growth inhibition measured after 72 hrs by CCK-8 assay. Format: functional, cell-based. To be noted: MCF7, 72 h.
Experiment [3] concerns the target Serine/threonine-protein kinase mTOR (Homo sapiens, UniProt P42345). The experiment is described as follows: Inhibition of human mTOR (1360 to 2549 residues) measured after 2 hrs in presence of ATP by LANCE Ultra kinase assay. (Time-resolved FRET reads energy transfer from a long-lived donor to a nearby acceptor.)
Experiment [4] can be described thus: Anticancer activity against Breast carcinoma cell (unknown origin) assessed as cell growth inhibition. Format: functional, cell-based.
Experiment [5] deals with Lung cancer cell line. The experiment is described as follows: Anticancer activity against Lung cancer cell line (unknown origin) assessed as cell growth inhibition. Format: functional, cell-based.
In experiment [6] the test system is Melanoma tumor cell line. Kind of experiment: Anticancer activity against Melanoma tumor cell line (unknown origin) assessed as cell growth inhibition. Format: functional, cell-based.
The nature of experiment [7]: Anticancer activity against Cervical carcinoma cell line (unknown origin) assessed as cell growth inhibition. The experiment is classed as functional, cell-based.

Each structure is given as a SMILES string. pIC50: −log10 of the molar value.

The term pIC50 denotes −log10 of the IC50, conventionally taken in molar units. Take `CNC(=O)Nc1ccc(-c2nc(N3CCOCC3)nc3c2C=NC3C2CCOCC2)cc1` (configuration not stated): the figures for the pIC50 in experiment [1], in experiment [2] and in experiment [3] were 6.64, 6.22 and 7.63, respectively.
For the compound `Oc1cccc(-c2nc(N3CCOCC3)c3oc4ncccc4c3n2)c1` [PI-103], the negative-log IC50 (pIC50) in experiment [4], in experiment [5], in experiment [6] and in experiment [7] was 7.70 in each case.
